Experimental data as given in the supplement of paper PMC10307832.

How the values were obtained:
Experiment in all cases: relative viability (nuclei count vs DMSO), 5 days (fraction); higher = more cells survive
ChaGo-K-1 = system: ChaGo-K-1
Method in brief: (§1)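 After 5 days of treatment, lung cancer cells in 1536-well plates were fixed and stained in a single step (final 0.05% Triton X-100, 1% formaldehyde, 1 ug/ml Hoechst) and their nuclei counted on 4× images. Treatment had been applied by pin tool the day after seeding as one drug alone or as a fixed anchor-drug dose with five library-drug doses (not always all listed) in √10 steps. Relative viability is the nuclei count of treated wells divided by that of vehicle wells, and values are medians of duplicate plates.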

EKVX = system: EKVX
Method in brief: as §1

EMC-BAC-2 = system: EMC-BAC-2
Method in brief: as §1

EPLC-272H = system: EPLC-272H
Method in brief: as §1

HCC-78 = system: HCC-78
Method in brief: as §1

HCC-827 = system: HCC-827
Method in brief: as §1

LCLC-103H = system: LCLC-103H
Method in brief: as §1

LK-2 = system: LK-2
Method in brief: as §1

LU99A = system: LU99A
Method in brief: as §1

NCI-H1563 = system: NCI-H1563
Method in brief: as §1

NCI-H1666 = system: NCI-H1666
Method in brief: as §1

NCI-H1975 = system: NCI-H1975
Method in brief: as §1

NCI-H2126 = system: NCI-H2126
Method in brief: as §1

NCI-H2342 = system: NCI-H2342
Method in brief: as §1

NCI-H23 = system: NCI-H23
Method in brief: as §1

NCI-H2405 = system: NCI-H2405
Method in brief: as §1

NCI-H322M = system: NCI-H322M
Method in brief: as §1

PC-14 = system: PC-14
Method in brief: as §1

RERF-LC-KJ = system: RERF-LC-KJ
Method in brief: as §1

SK-LU-1 = system: SK-LU-1
Method in brief: as §1

SW 1573 = system: SW 1573
Method in brief: as §1

SW 900 = system: SW 900
Method in brief: as §1

## COc1cc2nccc(Oc3ccc(NC(=O)Nc4cc(C)on4)c(Cl)c3)c2cc1OC [Tivozanib] + COc1cc2c(Oc3ccc(NC(=O)C4(C(=O)Nc5ccc(F)cc5)CC4)cc3F)ccnc2cc1OCCCN1CCOCC1 [Foretinib] (partner 0.25 µM)
ChaGo-K-1; first compound 0.005 µM
  relative viability: 0.841
ChaGo-K-1; first compound 0.01581 µM
  relative viability: 0.914
ChaGo-K-1; first compound 0.05 µM
  relative viability: 0.869
ChaGo-K-1; first compound 0.1581 µM
  relative viability: 0.889
ChaGo-K-1; first compound 0.5 µM
  relative viability: 0.86
EKVX; first compound 0.005 µM
  relative viability: 0.695
EKVX; first compound 0.01581 µM
  relative viability: 0.891
EKVX; first compound 0.05 µM
  relative viability: 0.84
EKVX; first compound 0.1581 µM
  relative viability: 0.456
EKVX; first compound 0.5 µM
  relative viability: 0.786
EMC-BAC-2; first compound 0.005 µM
  relative viability: 1.03
EMC-BAC-2; first compound 0.01581 µM
  relative viability: 0.952
EMC-BAC-2; first compound 0.05 µM
  relative viability: 1.03
EMC-BAC-2; first compound 0.1581 µM
  relative viability: 0.952
EMC-BAC-2; first compound 0.5 µM
  relative viability: 1.07
EPLC-272H; first compound 0.005 µM
  relative viability: 0.61
EPLC-272H; first compound 0.01581 µM
  relative viability: 0.76
EPLC-272H; first compound 0.05 µM
  relative viability: 0.724
EPLC-272H; first compound 0.1581 µM
  relative viability: 0.694
EPLC-272H; first compound 0.5 µM
  relative viability: 0.655
HCC-78; first compound 0.005 µM
  relative viability: 0.539
HCC-78; first compound 0.01581 µM
  relative viability: 0.543
HCC-78; first compound 0.05 µM
  relative viability: 0.534
HCC-78; first compound 0.1581 µM
  relative viability: 0.556
HCC-78; first compound 0.5 µM
  relative viability: 0.546
HCC-827; first compound 0.005 µM
  relative viability: 0.994
HCC-827; first compound 0.01581 µM
  relative viability: 1.09
HCC-827; first compound 0.05 µM
  relative viability: 1.02
HCC-827; first compound 0.1581 µM
  relative viability: 1.09
HCC-827; first compound 0.5 µM
  relative viability: 1.01
LCLC-103H; first compound 0.005 µM
  relative viability: 0.905
LCLC-103H; first compound 0.01581 µM
  relative viability: 0.809
LCLC-103H; first compound 0.05 µM
  relative viability: 0.686
LCLC-103H; first compound 0.1581 µM
  relative viability: 0.849
LCLC-103H; first compound 0.5 µM
  relative viability: 0.881
LK-2; first compound 0.005 µM
  relative viability: 1.36
LK-2; first compound 0.01581 µM
  relative viability: 1.09
LK-2; first compound 0.05 µM
  relative viability: 1.18
LK-2; first compound 0.1581 µM
  relative viability: 1.1
LK-2; first compound 0.5 µM
  relative viability: 1.02
LU99A; first compound 0.005 µM
  relative viability: 0.663
LU99A; first compound 0.01581 µM
  relative viability: 0.747
LU99A; first compound 0.05 µM
  relative viability: 0.836
LU99A; first compound 0.1581 µM
  relative viability: 0.653
LU99A; first compound 0.5 µM
  relative viability: 0.812
NCI-H1563; first compound 0.005 µM
  relative viability: 0.853
NCI-H1563; first compound 0.01581 µM
  relative viability: 1.01
NCI-H1563; first compound 0.05 µM
  relative viability: 0.888
NCI-H1563; first compound 0.1581 µM
  relative viability: 0.847
NCI-H1563; first compound 0.5 µM
  relative viability: 0.867
NCI-H1666; first compound 0.005 µM
  relative viability: 0.973
NCI-H1666; first compound 0.01581 µM
  relative viability: 0.971
NCI-H1666; first compound 0.05 µM
  relative viability: 1.04
NCI-H1666; first compound 0.1581 µM
  relative viability: 0.963
NCI-H1666; first compound 0.5 µM
  relative viability: 0.999
NCI-H1975; first compound 0.005 µM
  relative viability: 0.938
NCI-H1975; first compound 0.01581 µM
  relative viability: 0.967
NCI-H1975; first compound 0.05 µM
  relative viability: 1.04
NCI-H1975; first compound 0.1581 µM
  relative viability: 0.965
NCI-H1975; first compound 0.5 µM
  relative viability: 0.918
NCI-H2126; first compound 0.005 µM
  relative viability: 1.24
NCI-H2126; first compound 0.01581 µM
  relative viability: 1.11
NCI-H2126; first compound 0.05 µM
  relative viability: 1.18
NCI-H2126; first compound 0.5 µM
  relative viability: 1.25
NCI-H2342; first compound 0.005 µM
  relative viability: 0.96
NCI-H2342; first compound 0.01581 µM
  relative viability: 1.11
NCI-H2342; first compound 0.05 µM
  relative viability: 1.11
NCI-H2342; first compound 0.5 µM
  relative viability: 1.05
NCI-H23; first compound 0.005 µM
  relative viability: 0.907
NCI-H23; first compound 0.01581 µM
  relative viability: 1.04
NCI-H23; first compound 0.05 µM
  relative viability: 1.04
NCI-H23; first compound 0.1581 µM
  relative viability: 0.942
NCI-H23; first compound 0.5 µM
  relative viability: 1.1
NCI-H2405; first compound 0.005 µM
  relative viability: 1.03
NCI-H2405; first compound 0.01581 µM
  relative viability: 1.04
NCI-H2405; first compound 0.05 µM
  relative viability: 1.08
NCI-H2405; first compound 0.1581 µM
  relative viability: 1.07
NCI-H2405; first compound 0.5 µM
  relative viability: 0.966
NCI-H322M; first compound 0.005 µM
  relative viability: 0.843
NCI-H322M; first compound 0.01581 µM
  relative viability: 1.01
NCI-H322M; first compound 0.05 µM
  relative viability: 0.989
NCI-H322M; first compound 0.1581 µM
  relative viability: 0.926
NCI-H322M; first compound 0.5 µM
  relative viability: 0.969
PC-14; first compound 0.005 µM
  relative viability: 0.911
PC-14; first compound 0.01581 µM
  relative viability: 0.959
PC-14; first compound 0.05 µM
  relative viability: 1.01
PC-14; first compound 0.1581 µM
  relative viability: 1.09
PC-14; first compound 0.5 µM
  relative viability: 0.904
RERF-LC-KJ; first compound 0.005 µM
  relative viability: 0.821
RERF-LC-KJ; first compound 0.01581 µM
  relative viability: 0.79
RERF-LC-KJ; first compound 0.05 µM
  relative viability: 0.849
RERF-LC-KJ; first compound 0.1581 µM
  relative viability: 0.919
RERF-LC-KJ; first compound 0.5 µM
  relative viability: 0.863
SK-LU-1; first compound 0.005 µM
  relative viability: 0.794
SK-LU-1; first compound 0.01581 µM
  relative viability: 0.863
SK-LU-1; first compound 0.05 µM
  relative viability: 0.885
SK-LU-1; first compound 0.1581 µM
  relative viability: 0.762
SK-LU-1; first compound 0.5 µM
  relative viability: 0.829
SW 1573; first compound 0.005 µM
  relative viability: 0.784
SW 1573; first compound 0.01581 µM
  relative viability: 0.828
SW 1573; first compound 0.05 µM
  relative viability: 0.827
SW 1573; first compound 0.1581 µM
  relative viability: 0.886
SW 1573; first compound 0.5 µM
  relative viability: 0.903
SW 900; first compound 0.005 µM
  relative viability: 0.806
SW 900; first compound 0.01581 µM
  relative viability: 0.884
SW 900; first compound 0.05 µM
  relative viability: 0.733
SW 900; first compound 0.1581 µM
  relative viability: 0.697
SW 900; first compound 0.5 µM
  relative viability: 0.924
